Data set [1] can be described thus: Octanol-water partition coefficient (logP) value for platinum compounds. The data set is classed as physicochemical.
The nature of data set [2]: The observed [pt] (mmol/mg protein) value for platinum content in cells. The data set is classed as ADME.

Results on five substances are retold here after ChEMBL document CHEMBL1134341, “Calculation of the hydrophobicity of platinum drugs” (J Med Chem, 2001).

By logP is commonly meant a log measure of how a compound divides between an organic and an aqueous phase. Read a high logP as a more lipophilic compound. “AMMONIO(DICHLORO)PLATINUM(CYCLOHEXYL)AMMONIUM” gave a log partition coefficient (logP) in data set [1] of -0.87. The “Observed [pt]” value in data set [2] is reported as 1.9 mM (mg of protein)-1.
The matching figures for “AMMONIO(DICHLORO)[DI(BUTYLCARBONYLOXY)]PLATINUM(CYCLOHEXYL)AMMONIUM”: 0.86 and 17 mM (mg of protein)-1.
In data set [1], “AMMONIO(DICHLORO)[DI(METHYLCARBONYLOXY)]PLATINUM(CYCLOHEXYL)AMMONIUM” yielded a logP of -0.47. In data set [2], the “Observed [pt]” value is 3.5 mM (mg of protein)-1.
Substance “AMMONIO(DICHLORO)[DI(PROYLCARBONYLOXY)]PLATINUM(CYCLOHEXYL)AMMONIUM” yielded a log partition coefficient (logP) in data set [1] of 0.47. Besides, the “Observed [pt]” value in data set [2] was 13.5 mM (mg of protein)-1.
The matching figures for CISPLATIN: -2.36 and 1 mM (mg of protein)-1.
